# Data reported in patent US12697366B2, “Thermogenic compositions and methods” (Ohio State Innovation Foundation, priority 2016, dated 2026).
# How the values were obtained:
# [1] = tested on: 3T3-L1 adipocytes; test: LTA axon guidance gene expression in 3T3-L1 adipocytes (NanoString mouse innervation panel); assay type: cell-based; conditions: 24 hrs; for Efna5 and Epha4 expression: TTNPB 50 nM or BMS493 100 nM
# Procedure: FIG. 5A to 5I show retinoids regulate the LTA axon guiding secretome via ephrin A5. FIG. 5A: DRG neurons were cultured in DRG culture medium with secretome from Aldh1a1^−/− adipocytes (1/1, v/v) that were treated with or without RA (100 nM). RA was added to Aldh1a1^−/− differentiation medium (Day 0, 2, 5). To prepare this secretome, medium was collected for last 24 hours. Representative images were selected from three independent experiments. Average neurite growth indices were measured by XTI microscopy in DRG neurons in DRG culture medium containing veh (white bar), NGF (vertical lined bar), or Aldh1a1^−/− secretome treated without (black bar) or with RA (hatched bar). An asterisk indicates P<0.05; Mann-Whitney U test. FIG. 5B: 3T3-L1 adipocytes (n=3) were cultured in differentiation medium for 4 days. At day 5, medium was replaced by UV-treated 1% FBS-contained DMEM with and without Rald (30 nM). 24 hrs post stimulation, cells were harvested for mRNA. The gene expression was measured by the customized NanoString mouse innervation panel. […] Gene expression was measured by the NanoString mouse innervation panel. […] Protein levels of ephrin-A5 ligand (EFNA5) in medium EFNA5 and β-actin in cell lysates were analyzed by Western blot at Day 0, 2, 4, and 6. FIG. 5F: Plasma from WT and Aldh1a1^−/− mice (Table 1, Study 4) was measured by EFNA5 ELISA (n=5 per group) Table 1, Study 4. […] FIG. 5H: Tyrosine hydroxylase (TH) protein levels was analyzed in whole subcutaneous (Western blot insert) and iAb fat pads from mice injected with PBS (n=3) or EFNA5 (n=4, Table 1, Study 5) by Western blot. […] FIG. 5I: Heat (metabolic rate) was measured in PBS- and EFNA5-injected mice from Study 4 after 4° C. exposure by an open circuit indirect calorimetry treadmill (basal metabolic rate for 42 h is shown in FIG. 9C). […]
# NanoString's nCounter analysis (NanoString Technologies) system performed direct detection of target molecules from a single sample using color-coded molecular barcodes, giving a digital quantification of the number of target molecules as described before (Shen et al., 2015, PMID: 25620076). […]
# [2] = tested on: iAb (omental) fat explants; test: LEP release from iAb (omental) fat explants of an obese patient (ELISA); assay type: cell-based, human; conditions: EGFR-I, MAPK-I, PI3K-I
# Procedure: FIGS. 14A to 14N show EREG induces expression of thermogenic and PPARα-target genes, suppresses inflammatory genes, and stimulates leptin secretion. FIGS. 14A to 14H and 14L: Markers for thermogenesis, adipogenesis, and inflammatory genes were analyzed using homogenates from whole iAb fat pads isolated from Veh- (white bars) and EREG-treated (black bars) DIO mice (Study 3). Gene expression was quantified using a customized NanoString panel. Data represent mean±SD, n.s.,—non-significant. FIG. 14I: LEP was measured in plasma in the same mice by ELISA. Data (mean±SD) are shown as percent to control (Veh, 100%) and is indicated as a dashed line. FIG. 14J: LEP release after stimulation with different concentrations of recombinant human EREGs was measured in explants of iAb (omental) tissue obtained from an obese insulin resistant patient. FIG. 14K: LEP release after stimulation of explants from same donor with and without EREG (50 ng/mL) in the presence and absence of insulin (Ins, 10 μg/mL), MAPK-I, EGFR-I, PI3K-I. Inhibitors concentrations were described in FIG. 1. FIG. 14M: LEP release after stimulation of iAb fat explants (2 h) from WT mice with different concentrations of recombinant mouse EREG. Experiment was repeated in three different WT mice. Data (mean±SD) are shown as percent to control (Veh, 100%). FIG. 14N: LEP release following stimulation of iAb fat explants (2 h) from WT mice with inhibitors of EGFR (10 μM) and MAPK (10 μM) in the presence or absence of EREG (50 ng/ml). Data (mean±SD) are shown as percent to control (Veh, 100%).
# Abdominal fat tissue obtained from an obese patient was excised into 35 mg sections for stimulation with EREG. Explants were stimulated with EREG in DMEM containing 1% FBS for 2 h. Media was collected after 2 h, lyophilized and reconstituted in 120 μL deionized water for leptin detection using ELISA kit (Alpco, Salem, NH).
# [3] = tested on: PPARα-LBD; test: PPARα-LBD luciferase reporter in transiently transfected HEK293 cells; assay type: cell-based, human; conditions: EREG 50 ng/mL; EGFR-I 10 μM, MAPK-I 10 μM, HSL-I 10 μM, SRC-I 1 μM, PI3K-I 100 nM
# Procedure: FIGS. 11A to 11I show adipokine Ereg is bilaterally associated with obesity and thermogenesis and activates PPARα. […] Microarray gene analysis was performed using Affymetrix microarray. FIG. 11B: Ereg expression was measured in non-differentiated and differentiated (day 5) 3T3-L1 adipocytes (Mann-Whitney test) using a customized NanoString mouse panel. FIG. 11C: Ereg expression was measured in differentiated (day 5) 3T3-L1 and Aldh1a1^−/− adipocytes by Taqman and normalized to TATA box protein (TBP). FIG. 11D: Plasma EREG concentrations were measured in mice from Study 1 by western blot. […] FIG. 11E: Plasma EREG concentrations were measured and quantified in iAb of WT and ob/ob mice from Study 2 by western blot (n=5 per each group). […] FIG. 11F: EREG was measured in iAb, subcutaneous and brown fat by western blot. Fat pads were dissected from WT mice on regular chow (Study 1). FIG. 11G: Ucp2 and Ucp1 expression was measured in differentiated 3T3-L1 adipocytes (day 5) stimulated with vehicle (PBS) or recombinant EREG (50 ng/mL) added in the differentiation medium I and II. Expression level were measured by Taqman and normalized by TBP. FIGS. 11H and 11I: HEK293 cells were transiently transfected with PPARα-LBD, UASTK-luciferase, and renilla. […] Data represents % PPARα-LBD activation. Asterisks indicate significant difference (p<0.05) compared to vehicle control, #, indicates statistical difference between PPARα-LBD activation by EREG alone and in the presence of inhibitors. Data represent mean±SD. The Mann-Whitney test was used throughout these studies for group comparison.
# HEK293 cells ([…] cells, 24-well plates) were used for transient transfection experiments. Cells were transfected with human PPARα-LBD construct, yeast UASTK luciferase reporter (SwitchGear Genomics, Menlo Park, CA), using Fugene (Roche Applied Science, Indianapolis, IN). Transfections were carried out in OptiMeM (Invitrogen, Carlsbad, CA) medium for 12 hours as described previously. Luciferase was measured using Promega assay according to manufacturer's instructions
# [4] = tested on: 3T3-L1 preadipocytes; test: FD-glucose uptake in 3T3-L1 preadipocytes; assay type: cell-based, mouse; conditions: 30 mins; insulin 10 μg/ml, EREG 50 ng/ml, forskolin 4 μg/ml
# Procedure: Non-differentiated, 90% confluent 3T3-L1 cells were starved with glucose-deprived medium for 40 min. Then cells were treated in the presence and absence of different concentrations of nanoscaffold #2 and bovine insulin (200 μg/mL), all of reagents dissolved in the same glucose-deprived medium but containing fluorescent-D (FD)-glucose for 80 min. Thereafter, the FD glucose uptake was measured according to manufacturer's instructions (Cayman Chemical, USA, cat #600471). […] Non-differentiated, 90% confluent 3T3-L1 cells treated in the presence and absence of different concentrations of nanoscaffold #2 and bovine insulin (10 μg/mL) or mouse epiregulin (EREG, 0.05 μg/mL) and incubated for 24 h. Then cells were starved with glucose-deprived medium for 40 min and, then incubated with fluorescent-D (FD)-glucose for 80 min. Thereafter, the FD glucose uptake was measured according to manufacturer's instructions (Cayman Chemical, USA, cat #600471). Data are shown as percent of uptake in the presence of insulin (100%).
# Non-differentiated, 90% confluent 3T3-L1 cells treated in the presence of bovine insulin (10 μg/mL), mouse epiregulin (EREG, 0.05 μg/mL), or their combinations and incubated for 24 h. Then cells were starved with glucose-deprived medium for 40 min and, then incubated with fluorescent-D (FD)-glucose for 80 min. Thereafter, the FD glucose uptake was measured according to manufacturer's instructions (Cayman Chemical, USA, cat #600471).
# Non-differentiated, 90% confluent 3T3-L1 cells were starved with glucose-deprived medium for 50 min. Then cells were treated in the presence and absence of different concentrations of mouse recombinant IGFBP4 with and without nanoscaffold #2 and human insulin (10 μg/mL). All of reagents were dissolved in the same glucose-deprived medium but containing fluorescent-D (FD)-glucose for 90 min. Thereafter, the FD glucose uptake was measured according to manufacturer's instructions (Cayman Chemical, USA, cat #600471).
# Glucose uptake assay was performed using glucose uptake cell-based assay kit (Cayman Chemical, Ann Arbor, MI). 3T3-L1 or human preadipocytes were cultured at a density of 5×10^4 per well into a 96-well plate (n=7) in high glucose media and grown overnight. Old cell culture medium was removed the next day and washed with PBS to remove residual glucose. Supplied 2-deoxy-2-[(7-nitro-2,1,3-benzoxadiazol-4-yl)amino]-D-glucose) (2-NBDG) was diluted to 150 μg/mL in DMEM medium without glucose, phenol red, L-glutamine, sodium pyruvate, and HEPES (Life technologies, Grand Island, New York). 100 μL of 2-NBDG glucose free medium with or without recombinant EREG and other treatments was added to the plated cells. After incubating at 37° C. for 30 minutes, cells were washed gently two times with 200 μL of glucose assay buffer. 100 μL of the assay buffer was added to each well and measured for fluorescence at an excitation/emission of 485/535 nm.
# Fluorescence glucose uptake (FD-glucose assay) was performed as described PMID: 32065973, using insulin, 1.7 μM and different AACs at concentration 0.1 μM.
# FD-glucose uptake in mouse 3T3-L1 preadipocytes (n=8 per treatment) treated with vehicle (Veh; PBS, open bar) or hINS (1.7 μM), mouse leptin (mLep; 12.5 nM, hatched bar), or AAC2 (0.1 μM black bar) in the presence and absence of GLUT1 inhibitor (BAY-876; 10 nM in DMSO). Cells were pre-treated with or without BAY-876 for 40 min and then FD glucose and treatment reagents were added for additional 80 min of incubation. Data (%) was normalized to FD-glucose uptake in control (Veh) 3T3-L1 cells without inhibitor (100%). Student's independent t-test.
structure (smiles),measurement,setting,value
CC1(C)CC=C(C#Cc2ccccc2)c2cc(/C=C/c3ccc(C(=O)O)cc3)ccc21 [BMS429],Efna5 and Epha4 expression,[1],induced
"COc1cc2ncnc(Nc3cccc(Cl)c3)c2cc1OC [EGFR inhibitor, Tyrphostin AG1478]",EREG / insulin mediated LEP release in the presence of inhibitor,[2],inhibited
same,EREG-dependent PPARα-LBD activation in the presence of inhibitor,[3],abolished
"COc1nn(-c2ccc(NC(=O)OCc3ccccc3)c(C)c2)c(=O)o1 [HSL inhibitor, CAY10499]",EREG-dependent PPARα-LBD activation in the presence of inhibitor,[3],abolished
"N#CC(=C(/N)Sc1ccccc1N)/C(C#N)=C(\N)Sc1ccccc1N [MAPK inhibitor, U0126]",EREG / insulin mediated LEP release in the presence of inhibitor,[2],inhibited
same,EREG-dependent PPARα-LBD activation in the presence of inhibitor,[3],abolished
"COc1ccc(Cl)c(Nc2ncnc3cc(OCC4CCN(C)CC4)c(OC)cc23)c1 [SRC inhibitor, AZM475271]",EREG-dependent PPARα-LBD activation in the presence of inhibitor,[3],now effect
C/C(=C\c1ccc(C(=O)O)cc1)c1ccc2c(c1)C(C)(C)CCC2(C)C [TTNPB],Efna5 and Epha4 expression,[1],suppressed
"C=C[C@@]1(C)CC(=O)[C@]2(O)[C@@]3(C)[C@@H](O)CCC(C)(C)[C@@H]3[C@H](O)[C@H](OC(C)=O)[C@@]2(C)O1 [forskolin, reference compound]",glucose uptake compared to non-stimulated 3T3-L1 preadipocytes,[4],245%
CC1=C(/C=C/C(C)=C/C=C/C(C)=C/C=O)C(C)(C)CCC1 [retinaldehyde],expression of molecules associated with the LTA-axon guidance secretome,[1]; Rald 30 nM,significantly increased
